The source of these data is patent US9926297B2, “Bicyclic AZA compounds as muscarinic M1 receptor and/or M4 receptor agonists” (Heptares Therapeutics Limited, priority 2014, dated 2018).

For orientation: Emax means the maximal effect, on the per cent scale that the assay sets.

Assay [1] addresses T1, human muscarinic M1 receptor (Homo sapiens, UniProt P11229).
T1 sequence (P11229 1-460): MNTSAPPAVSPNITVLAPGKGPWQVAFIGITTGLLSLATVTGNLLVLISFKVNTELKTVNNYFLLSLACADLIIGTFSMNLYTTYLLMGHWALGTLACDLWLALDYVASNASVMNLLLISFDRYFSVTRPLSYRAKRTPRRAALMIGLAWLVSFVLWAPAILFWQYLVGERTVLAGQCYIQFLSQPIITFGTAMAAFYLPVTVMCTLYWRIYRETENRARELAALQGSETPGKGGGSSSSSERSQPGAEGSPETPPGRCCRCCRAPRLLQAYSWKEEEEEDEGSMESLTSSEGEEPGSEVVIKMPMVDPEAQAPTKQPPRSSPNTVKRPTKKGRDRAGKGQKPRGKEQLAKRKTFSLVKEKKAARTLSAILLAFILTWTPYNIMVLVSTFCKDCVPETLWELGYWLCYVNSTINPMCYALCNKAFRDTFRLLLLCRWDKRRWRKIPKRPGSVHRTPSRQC
Put plainly: Alphascreen Surefire phospho-ERK1/2 functional assay, M1. The format is cell-based. The note with it: for EC50: CHO cells stably expressing human M1, phospho-ERK1/2, * = variable results, read-out: pEC50 M1 (converted); for Emax: CHO, read-out: % Emax cf. ACh, M1, CHO cells stably expressing human M1, relative to ACh. On the technique in general: Bead proximity is the source of the signal in Alpha formats.

In assay [2] the target is T2, human muscarinic M4 receptor (Homo sapiens, UniProt P08173).
T2 construct: expressed in transfected cells
T2 sequence (P08173 1-479): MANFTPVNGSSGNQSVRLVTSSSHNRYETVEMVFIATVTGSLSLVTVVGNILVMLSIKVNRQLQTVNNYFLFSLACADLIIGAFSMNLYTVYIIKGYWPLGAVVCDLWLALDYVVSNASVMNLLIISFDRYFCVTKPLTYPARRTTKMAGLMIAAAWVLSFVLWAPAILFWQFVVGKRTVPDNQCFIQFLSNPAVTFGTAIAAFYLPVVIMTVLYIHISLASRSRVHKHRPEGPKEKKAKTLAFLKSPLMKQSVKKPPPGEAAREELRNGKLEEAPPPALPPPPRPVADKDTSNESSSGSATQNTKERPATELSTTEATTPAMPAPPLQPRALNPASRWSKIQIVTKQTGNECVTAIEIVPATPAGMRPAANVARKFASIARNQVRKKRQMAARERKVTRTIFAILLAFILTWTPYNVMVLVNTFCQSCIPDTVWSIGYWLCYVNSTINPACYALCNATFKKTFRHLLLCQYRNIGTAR
Put plainly: Alphascreen Surefire phospho-ERK1/2 functional assay, M4. The format is cell-based. As to conditions: for EC50: CHO cells stably expressing human M4, phospho-ERK1/2, * = variable results, read-out: pEC50 M4 (converted); for Emax: CHO, read-out: % Emax cf. ACh, M4, CHO cells stably expressing human M4, relative to ACh.

Assay [3] has as its target human muscarinic M3 receptor (Homo sapiens, UniProt P20309). As to the kind of experiment: Alphascreen Surefire phospho-ERK1/2 functional assay, M3. The note with it: for Emax: CHO, read-out: % Emax cf. ACh, M3, CHO cells stably expressing human M3, relative to ACh; for EC50: pEC50 M3, CHO cells stably expressing human M3, phospho-ERK1/2, * = variable results.
Procedure: CHO cells stably expressing the human muscarinic M1, M2, M3 or M4 receptor were plated (25K/well) onto 96-well tissue culture plates in MEM-alpha+10% dialysed FBS. Once adhered, cells were serum-starved overnight. Agonist stimulation was performed by the addition of 5 μL agonist to the cells for 5 min (37° C.). Media was removed and 50 μL of lysis buffer added. After 15 min, a 4 μL sample was transferred to 384-well plate and 7 μL of detection mixture added. Plates were incubated for 2 h with gentle agitation in the dark and then read on a PHERAstar plate reader.
pEC50 and Emax figures were calculated from the resulting data for each receptor subtype.
For assay [4], the target named is T3, human muscarinic M2 receptor (Homo sapiens, UniProt P08172).
T3 sequence (P08172 1-466): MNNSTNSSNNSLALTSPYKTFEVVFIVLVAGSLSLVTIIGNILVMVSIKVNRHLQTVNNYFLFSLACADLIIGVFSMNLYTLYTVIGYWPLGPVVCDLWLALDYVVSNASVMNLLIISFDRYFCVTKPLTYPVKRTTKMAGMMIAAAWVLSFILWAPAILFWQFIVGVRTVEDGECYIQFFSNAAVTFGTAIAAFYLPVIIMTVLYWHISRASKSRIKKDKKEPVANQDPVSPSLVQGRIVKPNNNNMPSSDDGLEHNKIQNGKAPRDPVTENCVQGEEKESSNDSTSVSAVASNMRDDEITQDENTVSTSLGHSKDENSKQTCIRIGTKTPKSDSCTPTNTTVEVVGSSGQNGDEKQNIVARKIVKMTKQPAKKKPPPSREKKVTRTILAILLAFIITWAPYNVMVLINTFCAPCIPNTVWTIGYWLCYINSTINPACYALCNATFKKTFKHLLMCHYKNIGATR
Put plainly: Alphascreen Surefire phospho-ERK1/2 functional assay, M2. The note with it: for Emax: CHO, read-out: % Emax cf. ACh, M2, CHO cells stably expressing human M2, relative to ACh.

Sequence of human muscarinic M3 receptor (P20309 whole entry): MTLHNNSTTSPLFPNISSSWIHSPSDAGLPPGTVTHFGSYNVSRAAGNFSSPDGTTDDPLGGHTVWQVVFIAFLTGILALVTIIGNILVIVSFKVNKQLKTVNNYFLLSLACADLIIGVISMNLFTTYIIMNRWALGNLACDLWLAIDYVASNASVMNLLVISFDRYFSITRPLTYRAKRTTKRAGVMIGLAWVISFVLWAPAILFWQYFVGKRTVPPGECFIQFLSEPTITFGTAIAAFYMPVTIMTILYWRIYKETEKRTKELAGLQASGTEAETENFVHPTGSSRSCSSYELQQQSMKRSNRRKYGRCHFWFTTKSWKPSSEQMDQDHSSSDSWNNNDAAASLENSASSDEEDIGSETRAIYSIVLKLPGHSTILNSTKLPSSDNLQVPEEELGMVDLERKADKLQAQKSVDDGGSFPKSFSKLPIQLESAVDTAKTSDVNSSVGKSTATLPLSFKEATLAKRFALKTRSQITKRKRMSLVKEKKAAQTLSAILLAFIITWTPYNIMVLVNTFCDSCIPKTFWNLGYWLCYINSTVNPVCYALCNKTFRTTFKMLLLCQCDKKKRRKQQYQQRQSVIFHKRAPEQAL

For `CCOC(=O)N1CCC2(CC(N3CCC(C4CCCN4C(=O)CC)CC3)C2)C1` (single isomer, unassigned) [2-6 Isomer 2, ethyl 2-[4-(1-propanoylpyrrolidin-2-yl)piperidin-1-yl]-6-azaspiro[3.4]octane-6-carboxylate], the EC50 was 3.16 µM in assay [1], 0.0158 µM in assay [2], > 20 µM in assay [3] and > 20 µM in assay [4]. The maximum response (Emax) in assay [1] stood at 57%; in assay [2], 132%; in assay [3], 16%; in assay [4], 30%.

`CCOC(=O)N1CCC2(CC(N3CCC([C@@H]4CCCN4C(=O)CC)CC3)C2)C1` (single isomer, unassigned) [2-7 Isomer 2]: the EC50 in assay [1] was 0.794 µM; in assay [2] it was 0.0126 µM; in assay [3], 7.94 µM; in assay [4], > 20 µM. Also, the Emax in assay [1] turned out to be 41%; in assay [2], 100%; in assay [3], 27%; in assay [4], 13%.

On to `CCOC(=O)N1CCC2(CC(N3CCC([C@@H]4CCCN4C(=O)C4CC4)CC3)C2)C1` (single isomer, unassigned) [2-8 Isomer 2], for which the EC50 in assay [1] is 0.631 µM; in assay [2], 0.0158 µM; in assay [3] it was > 20 µM; in assay [4], > 20 µM. Besides, the Emax in assay [1] was found to be 36%; in assay [2] it was 86%; in assay [3], 4%; in assay [4], 3%.

For the compound `CCOC(=O)N1CCC2(CC(N3CCC([C@@H]4CCCN4C(=O)C4CCC4)CC3)C2)C1` (single isomer, unassigned) [2-9 Isomer 2], the EC50 was 1 µM in assay [1], 0.01 µM in assay [2], > 20 µM in assay [3] and > 20 µM in assay [4]. Besides, the maximal effect (Emax) came to 43% in assay [1], 104% in assay [2], 6% in assay [3] and 4% in assay [4].

As for `CCOC(=O)N1CCC2(CC(N3CCC(C4CCCN4C(=O)OC)CC3)C2)C1` (single isomer, unassigned) [2-11 Isomer 2, ethyl 2-{4-[1-(methoxycarbonyl)pyrrolidin-2-yl]piperidin-1-yl}-6-azaspiro[3.4]octane-6-carboxylate], the Emax is 39% in assay [1], 100% in assay [2], 7% in assay [3] and 7% in assay [4]. Besides, the figures for the EC50 in assay [2], in assay [3] and in assay [4] were 0.0251 µM, > 20 µM and > 20 µM, respectively.

As to `CCOC(=O)N1CCC2(CC(N3CCC([C@@H]4CCCN4C(=O)OC)CC3)C2)C1` (single isomer, unassigned) [2-12 Isomer 2], the EC50 was > 20 µM in assay [1], 0.01 µM in assay [2], > 20 µM in assay [3] and > 20 µM in assay [4]. Further, the maximum response (Emax) in assay [1] stood at 9%; in assay [2] it was 57%; in assay [3], 6%; in assay [4], 9%.

Take `CCOC(=O)N1CCC2(CC(N3CCC([C@H]4CCCN4C(=O)OC)CC3)C2)C1` (single isomer, unassigned) [2-13 Isomer 2]: the EC50 in assay [1] is 10 µM; in assay [2], 0.158 µM; in assay [3] it was > 20 µM; in assay [4], > 20 µM. Further, the Emax in assay [1] came to 69%; in assay [2], 57%; in assay [3] it was 24%; in assay [4] it was 7%.

Turning to `CCOC(=O)N1CCC2(CC(N3CCC(C4CCCN4C(=O)OCC)CC3)C2)C1` (single isomer, unassigned) [2-14 Isomer 2, ethyl 2-{4-[1-(ethoxycarbonyl)pyrrolidin-2-yl]piperidin-1-yl}-6-azaspiro[3.4]octane-6-carboxylate], the EC50 was > 20 µM in assay [1], 0.0158 µM in assay [2], > 20 µM in assay [3] and > 20 µM in assay [4]. Moreover, the maximum response (Emax) in assay [1] was 43%; in assay [2], 91%; in assay [3], 7%; in assay [4], 3%.
